According to PubChem BioAssay AID1963967 (Molecular Pharmacology Branch, DTP, NCI, 2024):

Tested on: 855422-203-R-J1-PDC spheroids with HUVEC/MSC, viability
Assay: Anticancer human tumor 855422-203-R-J1-PDC patient-derived bladder carcinoma cell line growth inhibition [PI3K]
Details: for IC50: curve of first compound; for viability, T/C: stronger effect = lower value
In short: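 Stroma-containing spheroids: tumor line, pooled-donor HUVEC, hMSC. Treatments: targeted agents with PI3K inhibitors. Dosing: clinically relevant, half-log spacing, 10 microM ceiling without known Cmax. Read-out: cell viability.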

[1] = second compound 0.00316 µM, first compound 0.0316 µM
[2] = second compound 0.00316 µM, first compound 0.1 µM
[3] = second compound 0.00316 µM, first compound 0.316 µM
[4] = second compound 0.00316 µM, first compound 1 µM
[5] = second compound 0.00316 µM, first compound 3.16 µM
[6] = second compound 0.00316 µM, first compound 10 µM
[7] = second compound 0.01 µM, first compound 0.0316 µM
[8] = second compound 0.01 µM, first compound 0.1 µM
[9] = second compound 0.01 µM, first compound 0.316 µM
[10] = second compound 0.01 µM, first compound 1 µM
[11] = second compound 0.01 µM, first compound 3.16 µM
[12] = second compound 0.01 µM, first compound 10 µM
[13] = second compound 0.0316 µM, first compound 0.0316 µM
[14] = second compound 0.0316 µM, first compound 0.1 µM
[15] = second compound 0.0316 µM, first compound 0.316 µM
[16] = second compound 0.0316 µM, first compound 1 µM
[17] = second compound 0.0316 µM, first compound 3.16 µM
[18] = second compound 0.0316 µM, first compound 10 µM
[19] = second compound 0.1 µM, first compound 0.0316 µM
[20] = second compound 0.1 µM, first compound 0.1 µM
[21] = second compound 0.1 µM, first compound 0.316 µM
[22] = second compound 0.1 µM, first compound 1 µM
[23] = second compound 0.1 µM, first compound 3.16 µM
[24] = second compound 0.1 µM, first compound 10 µM
[25] = second compound 0.316 µM, first compound 0.0316 µM
[26] = second compound 0.316 µM, first compound 0.1 µM
[27] = second compound 0.316 µM, first compound 0.316 µM
[28] = second compound 0.316 µM, first compound 1 µM
[29] = second compound 0.316 µM, first compound 3.16 µM
[30] = second compound 0.316 µM, first compound 10 µM
[31] = second compound 1 µM, first compound 0.0316 µM
[32] = second compound 1 µM, first compound 0.1 µM
[33] = second compound 1 µM, first compound 0.316 µM
[34] = second compound 1 µM, first compound 1 µM
[35] = second compound 1 µM, first compound 3.16 µM
[36] = second compound 1 µM, first compound 10 µM
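Also: agents incubated with spheroids for one week before read-out.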
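For viability, T/C in this document: 100% = DMSO vehicle-treated control wells.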

Cn1nccc1Nc1nccc(-c2ccn(C(CO)c3ccc(Cl)c(F)c3)c(=O)c2)n1 (stereo not given) + CC(Nc1ccc2c(c1)OCCn1cc(N3C(=O)OCC3C(F)F)nc1-2)C(N)=O
IC50 (second compound 0.00316 µM): 7.22 µM
IC50 (second compound 0.01 µM): 6.7 µM
IC50 (second compound 0.0316 µM): 5.55 µM
IC50 (second compound 0.1 µM): 3.78 µM
IC50 (second compound 0.316 µM): 0.796 µM
IC50 (second compound 1 µM): < 0.0316 µM
viability, T/C [1]: 103%
viability, T/C [2]: 84.7%
viability, T/C [3]: 95.7%
viability, T/C [4]: 89.7%
viability, T/C [5]: 80.7%
viability, T/C [6]: 38.3%
viability, T/C [7]: 98.4%
viability, T/C [8]: 96.2%
viability, T/C [9]: 93.5%
viability, T/C [10]: 82.8%
viability, T/C [11]: 76%
viability, T/C [12]: 37%
viability, T/C [13]: 62.7%
viability, T/C [14]: 82.1%
viability, T/C [15]: 89.7%
viability, T/C [16]: 82.8%
viability, T/C [17]: 70.1%
viability, T/C [18]: 29.1%
viability, T/C [19]: 72.4%
viability, T/C [20]: 79.4%
viability, T/C [21]: 79.1%
viability, T/C [22]: 64.7%
viability, T/C [23]: 56.8%
viability, T/C [24]: 20.2%
viability, T/C [25]: 53.6%
viability, T/C [26]: 52.5%
viability, T/C [27]: 51.8%
viability, T/C [28]: 49.5%
viability, T/C [29]: 29.3%
viability, T/C [30]: 10.6%
viability, T/C [31]: 35.9%
viability, T/C [32]: 32.2%
viability, T/C [33]: 29.9%
viability, T/C [34]: 26.4%
viability, T/C [35]: 17.3%
viability, T/C [36]: 8.01%

CNC(=O)c1ccc(N2C(=S)N(c3ccc(C#N)c(C(F)(F)F)c3)C(=O)C2(C)C)cc1F + CC(Nc1ncnc2nc[nH]c12)c1cc2cccc(Cl)c2c(=O)n1-c1ccccc1
IC50 (second compound 0.0316 µM): > 10 µM
IC50 (second compound 0.1 µM): > 10 µM
IC50 (second compound 0.316 µM): > 10 µM
IC50 (second compound 1 µM): > 10 µM
IC50 (second compound 3.16 µM): > 10 µM
IC50 (second compound 10 µM): > 10 µM
viability, T/C [13]: 111%
viability, T/C [14]: 93%
viability, T/C [15]: 109%
viability, T/C [16]: 89.1%
viability, T/C [17]: 86.2%
viability, T/C [18]: 75.4%
viability, T/C [19]: 117%
viability, T/C [20]: 91.1%
viability, T/C [21]: 104%
viability, T/C [22]: 86.6%
viability, T/C [23]: 74.3%
viability, T/C [24]: 68.5%
viability, T/C [25]: 96.9%
viability, T/C [26]: 105%
viability, T/C [27]: 102%
viability, T/C [28]: 80.2%
viability, T/C [29]: 76.5%
viability, T/C [30]: 63.1%
viability, T/C [31]: 97.4%
viability, T/C [32]: 102%
viability, T/C [33]: 106%
viability, T/C [34]: 91.4%
viability, T/C [35]: 73%
viability, T/C [36]: 69.1%
viability, T/C (second compound 3.16 µM, first compound 0.0316 µM): 100%
viability, T/C (second compound 3.16 µM, first compound 0.1 µM): 100%
viability, T/C (second compound 3.16 µM, first compound 0.316 µM): 100%
viability, T/C (second compound 3.16 µM, first compound 1 µM): 84.3%
viability, T/C (second compound 3.16 µM, first compound 3.16 µM): 76%
viability, T/C (second compound 3.16 µM, first compound 10 µM): 77.7%
viability, T/C (second compound 10 µM, first compound 0.0316 µM): 89%
viability, T/C (second compound 10 µM, first compound 0.1 µM): 80.9%
viability, T/C (second compound 10 µM, first compound 0.316 µM): 95.8%
viability, T/C (second compound 10 µM, first compound 1 µM): 81%
viability, T/C (second compound 10 µM, first compound 3.16 µM): 77.4%
viability, T/C (second compound 10 µM, first compound 10 µM): 68.4%

C[C@@H](NC(=O)c1ncnc(N)c1Cl)c1ncc(C(=O)Nc2cc(C(F)(F)F)c(Cl)cn2)s1 + CC(Nc1ccc2c(c1)OCCn1cc(N3C(=O)OCC3C(F)F)nc1-2)C(N)=O
IC50 (second compound 0.00316 µM): > 10 µM
IC50 (second compound 0.01 µM): > 10 µM
IC50 (second compound 0.0316 µM): > 10 µM
IC50 (second compound 0.1 µM): > 10 µM
IC50 (second compound 0.316 µM): < 0.0316 µM
IC50 (second compound 1 µM): < 0.0316 µM
viability, T/C [1]: 106%
viability, T/C [2]: 83%
viability, T/C [3]: 122%
viability, T/C [4]: 83.3%
viability, T/C [5]: 116%
viability, T/C [6]: 109%
viability, T/C [7]: 99.8%
viability, T/C [8]: 86.2%
viability, T/C [9]: 85.4%
viability, T/C [10]: 84.9%
viability, T/C [11]: 118%
viability, T/C [12]: 98.4%
viability, T/C [13]: 79.8%
viability, T/C [14]: 85.4%
viability, T/C [15]: 102%
viability, T/C [16]: 83%
viability, T/C [17]: 95.5%
viability, T/C [18]: 69.3%
viability, T/C [19]: 58.7%
viability, T/C [20]: 61.5%
viability, T/C [21]: 80%
viability, T/C [22]: 68%
viability, T/C [23]: 81.8%
viability, T/C [24]: 35%
viability, T/C [25]: 47.3%
viability, T/C [26]: 49.1%
viability, T/C [27]: 49.7%
viability, T/C [28]: 54%
viability, T/C [29]: 43.4%
viability, T/C [30]: 23.9%
viability, T/C [31]: 34.8%
viability, T/C [32]: 40.4%
viability, T/C [33]: 32.6%
viability, T/C [34]: 33.6%
viability, T/C [35]: 30.9%
viability, T/C [36]: 14.1%

CC1(C)CCC(Nc2ncc(C(F)(F)F)c(-c3c[nH]c4c(P(C)(C)=O)c(C#N)ccc34)n2)CN1 (stereo not given) + CC(Nc1ccc2c(c1)OCCn1cc(N3C(=O)OCC3C(F)F)nc1-2)C(N)=O
IC50 (second compound 0.00316 µM): < 0.0316 µM
IC50 (second compound 0.01 µM): < 0.0316 µM
IC50 (second compound 0.0316 µM): < 0.0316 µM
IC50 (second compound 0.1 µM): < 0.0316 µM
IC50 (second compound 0.316 µM): < 0.0316 µM
IC50 (second compound 1 µM): < 0.0316 µM
viability, T/C [1]: 23.7%
viability, T/C [2]: 25%
viability, T/C [3]: 27.9%
viability, T/C [4]: 31.6%
viability, T/C [5]: 31.4%
viability, T/C [6]: 3.85%
viability, T/C [7]: 20.4%
viability, T/C [8]: 21.3%
viability, T/C [9]: 26.2%
viability, T/C [10]: 25.8%
viability, T/C [11]: 29.1%
viability, T/C [12]: 3.78%
viability, T/C [13]: 20.2%
viability, T/C [14]: 22.9%
viability, T/C [15]: 22.2%
viability, T/C [16]: 24.6%
viability, T/C [17]: 24.1%
viability, T/C [18]: 2.13%
viability, T/C [19]: 20.2%
viability, T/C [20]: 19.4%
viability, T/C [21]: 20%
viability, T/C [22]: 23.2%
viability, T/C [23]: 21.5%
viability, T/C [24]: 3.77%
viability, T/C [25]: 15.3%
viability, T/C [26]: 17.9%
viability, T/C [27]: 15.7%
viability, T/C [28]: 15.5%
viability, T/C [29]: 13.7%
viability, T/C [30]: 1.23%
viability, T/C [31]: 14.4%
viability, T/C [32]: 14.2%
viability, T/C [33]: 13.1%
viability, T/C [34]: 12.6%
viability, T/C [35]: 11.4%
viability, T/C [36]: 0.83%

C#Cc1c(F)ccc2cc(O)cc(-c3ncc4c(N5CC6CCC(C5)N6)nc(OCC56CCCN5CC(F)C6)nc4c3F)c12 (stereo not given) + COc1c(OCCCN2CCOCC2)ccc2c3n(c(=NC(=O)c4cnc(N)nc4)nc12)CCN3
IC50 (second compound 0.00316 µM): > 10 µM
IC50 (second compound 0.01 µM): > 10 µM
IC50 (second compound 0.0316 µM): > 10 µM
IC50 (second compound 0.1 µM): < 0.0316 µM
IC50 (second compound 0.316 µM): < 0.0316 µM
IC50 (second compound 1 µM): < 0.0316 µM
viability, T/C [1]: 103%
viability, T/C [2]: 86.9%
viability, T/C [3]: 105%
viability, T/C [4]: 101%
viability, T/C [5]: 103%
viability, T/C [6]: 107%
viability, T/C [7]: 97.7%
viability, T/C [8]: 90.9%
viability, T/C [9]: 83.3%
viability, T/C [10]: 91%
viability, T/C [11]: 92.8%
viability, T/C [12]: 105%
viability, T/C [13]: 57.6%
viability, T/C [14]: 65.4%
viability, T/C [15]: 62.7%
viability, T/C [16]: 60%
viability, T/C [17]: 59.5%
viability, T/C [18]: 50.4%
viability, T/C [19]: 25.9%
viability, T/C [20]: 26.7%
viability, T/C [21]: 26.5%
viability, T/C [22]: 24.8%
viability, T/C [23]: 23.8%
viability, T/C [24]: 20.4%
viability, T/C [25]: 10.8%
viability, T/C [26]: 8.21%
viability, T/C [27]: 9.76%
viability, T/C [28]: 7.21%
viability, T/C [29]: 6.7%
viability, T/C [30]: 3.41%
viability, T/C [31]: 3.53%
viability, T/C [32]: 3.24%
viability, T/C [33]: 3.78%
viability, T/C [34]: 2.64%
viability, T/C [35]: 2.16%
viability, T/C [36]: 0.32%
